Laboratory results from patent US20260207628A1, “25-HYDROXY-CHOLEST-5-EN-3-SULFATE CHOLINE, FORMULATIONS THEREOF AND METHODS FOR PREPARING, AND USES OF SAME” (Durect Corporation, priority 2022, published 2026).
Where two headings read alike, the source gives them in different places. One block for each compound: values may come before it.

Assays:
[1] = by compressibility index and Hausner ratio
Description: Although there are some variations in the method of determining the compressibility index and Hausner ratio, the basic procedure is to measure the unsettled apparent volume, VO, and the final tapped volume, Vf, of the powder after tapping the material until no further volume changes occur. The compressibility index and the Hausner ratio are calculated as follows: […]
Powder was carefully poured into a 5 mL glass graduated cylinder (to contain) until it was close to or at 5.0 mL. This initial volume was recorded as Vo. The graduated cylinder was tapped on a hard surface for 200 times and the volume was recorded. The cylinder was tapped 100 times more, and the final volume Vf was recorded.

[2] = Dynamic vapor sorption (DVS), sorption/desorption 5% to 95% RH; format: physicochemical
Description: Dynamic vapor sorption data was collected on a Surface Measurement System DVS Intrinsic instrument. The samples were not dried prior to analysis. […] Data were not corrected for the initial moisture content of the sample.

[3] = Biorelevant drug release, USP Apparatus 2, 0-30 min FaSSGF then FaSSGF + double strength FaSSIF; format: physicochemical; settings: at 90 minutes, biorelevant media
Description: Biorelevant media as used herein is a combination of 2 different media used at different times. The first is in FaSSGF which stands for Fasted-state simulated gastric fluid and is used for 30 minutes of drug release. Afterwards, drug release is measured with addition of double strength FaSSIF which is Fasted-state simulated intestinal fluid. A skilled artisan would understand that the double strength FaSSIF is added at 30 minutes.
As used herein, the biorelevant drug release was conducted using a USP Apparatus 2 with (1) 0-30 minutes in 450 mL FaSSGF; and (2) 30-90 minutes FaSSGF+double strength FaSSIF in a total of 900 mL of media with pH adjusted to 6.5; with a paddle speed of 75 rpm (0-75 minutes) and 250 rpm (75-90 minutes) and a vessel temperature of 37° C.

[4] = Description: The aqueous solvents were water, 5% dextrose, 0.9% sodium chloride, Fasted State Simulated Intestinal Fluid (FaSSIF), Fed State Simulated Intestinal Fluid (FeSSIF) and Fasted State Simulated Gastric Fluid (FaSSGF). The organic solvents were methanol, ethanol, isopropanol and acetonitrile.
These fluids were prepared per the instruction listed by Biorelevant (Biorelevant.com). Each buffer concentrate was diluted with water and mixed well. FaSSIF, FeSSIF, FaSSGF powder was added to each buffer and mixed to completely dissolve the powder. Buffers were stored at room temperature and used within 48 hours of preparation.
Aliquots of each solvent were added to each sample and vortexed for about one minute until excess solid remained. Samples were placed on shaker at room temperature with 210 motion per minute shaking.
After one day, samples were pulled and checked if excess solid was present. About 1.5 mL aliquot of each sample was centrifuged at 12000 rpm for 12 to 15 minutes. […] Aliquots of the top clear solution of each centrifuged sample in MeOH, EtOH, IPA and ACN were diluted with diluent (water:MeOH 95:5) and assayed by HPLC.
A linear standard curve was constructed using standards with concentration between 11 μg/mL to 1.5 mg/mL as free acid forcing the curve to origin. Solubilities are reported as mg/mL free acid 25HC3S. Detection limit (LOD) of the HPLC method was calculated as 0.0007 mg/mL.

[5] = by angle of repose
Description: Angle of repose is measured as follows. Powder is poured from a funnel onto a flat surface until a cone of powder is created. The angle of repose is calculated according to the following equation:
[formula] • Where: • h: height of the cone (mm) • r: radius of the cone (mm)
The height of the cone was estimated with calipers.

[6] = remark: listed apart in the source
Description: Four vials were prepared and stored at 2-8° C. or […] according to Table B2. The samples were scheduled initially to pull for testing at 3 weeks and 6 weeks time points.
For appearance, each unopened vial was visually examined for color, clumping, and flowability.
Samples were prepared by pipetting 20 mL of 100% methanol into each vial and mixing well, with sonication and vortexing to fully dissolve the samples for HPLC analysis.
HPLC analysis was performed.

[7] = after jet milling
Description: Crystalline 25HC3S was placed in a JAM-2-2002 mill under nitrogen and milled. The materials were then placed into product containers. Jet milling was conducted at a feed rate of 300 g/hour, with a venturi pressure of 50 psi and mill pressure of 120 psi of nitrogen. The target specification was set to having a Dv (90) of less than 10 microns.

[8] = Clinical study: safety and tolerability of oral doses of 25HC3S; format: in vivo, healthy male and female subjects
Description: The secondary objective for both Parts 1 and 2 of the study was: • To provide information on the safety and tolerability of oral doses of 25HC3S in healthy subjects
The evaluation of safety parameters comprised analysis of adverse events, laboratory variables (hematology, clinical chemistry and urinalysis), vital signs, electrocardiograms (ECGs) and physical examination findings.

Scale of Flowability per USP<1174> (Flow Character) [1]: Very, very poor (>38)
weight loss on the return to 5% relative humidity ([2]; DVS desorption 95% to 5% RH): 0.5%
drug release [3]: ~ 10%
Solubility in 0.9% Sodium Chloride [4]: low solubility
Solubility in 5% Dextrose [4]: 0.093 mg/mL as Free Acid
Solubility in ACN [4]: 0.5 mg/mL as Free Acid
Solubility in EtOH [4]: 3.4 mg/mL as Free Acid
Solubility in IPA [4]: 0.6 mg/mL as Free Acid
Solubility in MeOH [4]: 17.5 mg/mL as Free Acid
Solubility in Water [4]: 0.107 mg/mL as Free Acid
Flow Property per USP<1174> Powder Flow [5]: Good (31-35)
% Impurities 25-HC (25-Hydroxy-Cholesterol) ([6]; 2-8° C., 3 wk): 0.2%
% Impurities SD (Sulfate Desmosterol) ([6]; 2-8° C., 3 wk): 0.4%
% Impurities Total ([6]; 2-8° C., 3 wk): 1.0%
Appearance ([6]; 2-8° C., 3 wk): White, free flowing powder with clumping
Assay ([6]; 2-8° C., 3 wk): 101.6 % w/w
% Impurities 25-HC (25-Hydroxy-Cholesterol) ([6]; 2-8° C., 5 wk): 0.2%
% Impurities SD (Sulfate Desmosterol) ([6]; 2-8° C., 5 wk): 0.3%
% Impurities Total ([6]; 2-8° C., 5 wk): 0.9%
Appearance ([6]; 2-8° C., 5 wk): White, free flowing powder with clumping
Assay ([6]; 2-8° C., 5 wk): 108.1 % w/w
% Impurities 25-HC (25-Hydroxy-Cholesterol) ([6]; 80° C., 3 wk): 0.4%
% Impurities SD (Sulfate Desmosterol) ([6]; 80° C., 3 wk): 0.4%
% Impurities Total ([6]; 80° C., 3 wk): 1.2%
% Recovery of 2-8° C./3 wk VS 80° C../3 wk ([6]; 80° C., 3 wk): 100.8%
Appearance ([6]; 80° C., 3 wk): White, free flowing powder with clumping
Assay ([6]; 80° C., 3 wk): 102.4 % w/w
% Impurities 25-HC (25-Hydroxy-Cholesterol) ([6]; 80° C., 5 wk): 0.2%
% Impurities SD (Sulfate Desmosterol) ([6]; 80° C., 5 wk): 0.8%
% Impurities Total ([6]; 80° C., 5 wk): 2.2%
% Recovery of 2-8º C./5 wk VS 80° C./5 wk ([6]; 80° C., 5 wk): 97.3%
Appearance ([6]; 80° C., 5 wk): White, free flowing powder with clumping
Assay ([6]; 80° C., 5 wk): 105.2 % w/w
Structure (SMILES): C[C@H](CCCC(C)(C)O)[C@H]1CC[C@H]2[C@@H]3CC=C4C[C@@H](OS(=O)(=O)[O-])CC[C@]4(C)[C@H]3CC[C@]12C.C[N+](C)(C)CCO [25HC3S choline, 25-hydroxy-3β-cholesten-5-en-3-sulfate (25HC3S) choline]

composite Dv (90) [7]: 4 microns
Structure (SMILES): C[C@H](CCCC(C)(C)O)[C@H]1CC[C@H]2[C@@H]3CC=C4C[C@@H](OS(=O)(=O)[O-])CC[C@]4(C)[C@H]3CC[C@]12C.C[N+](C)(C)CCO [Micronized 25HC3S choline]

Structure (SMILES): C[C@H](CCCC(C)(C)O)[C@H]1CCC2C3CC=C4C[C@@H](OS(=O)(=O)O)CC[C@]4(C)C3CC[C@@]21C (stereo partly drawn) [Tablet 25HC3S, [(3S,10R,13R,17R)-17-[(1R)-5-hydroxy-1,5-dimethyl-hexyl]-10,13-dimethyl-2,3,4,7,8,9,11,12,14,15,16,17-dodecahydro-1H-cyclopenta[a]phenanthren-3-yl]sulfate]
subjects reporting TEAEs, overall ([8]; 16 subjects, all TEAEs mild, not related to IMP): 2 (12.5%)
serious or severe TEAEs or deaths ([8]; all regimens): No serious, severe treatment-emergent adverse events (TEAEs) or deaths were reported
tolerability ([8]; choline salt IR formulations up to 50 mg fed and fasted, sodium salt PiB and choline salt PiB 12.5 mg fasted): well tolerated
total number of TEAEs ([8]; overall): 4

water uptake (DVS isotherm, in words) ([2]; until about 95% relative humidity, batch containing Form I and Form II): significant water uptake
Structure (SMILES): C[C@H](CCCC(C)(C)O)[C@H]1CC[C@H]2[C@@H]3CC=C4C[C@@H](OS(=O)(=O)[O-])CC[C@]4(C)[C@H]3CC[C@]12C.[Na+] [crystalline 25HC3S sodium, Sodium [(3S,10R,13R,17R)-17-[(1R)-5-hydroxy-1,5-dimethyl-hexyl]-10,13-dimethyl-2,3,4,7,8,9,11,12,14,15,16,17-dodecahydro-1H-cyclopenta[a]phenanthren-3-yl]sulfate, reference compound]
